Data published in patent publication US5650411A, “Substituted azolone derivatives” (Janssen Pharmaceutica N.V., priority 1993, dated 1997).
Values after ≈ are worked out from the molar mass of the structure shown. Counter-ions that a name gives are not always drawn.

Test system: Helicobacter pylori
Test: Minimal inhibitory concentration (MIC) against Helicobacter pylori, urease read-out, 5 clinical strains
Assay type: cell-based
Settings: 5 H. pylori clinical strains, 10% blood agar, 48 h at 37° C., microaerophilic, read-out: MIC
Description: The anti-Helicobacter activity of the subject compounds was assessed by the following in-vitro test procedure.
The activity of test compounds against Helicobacter pylori was determined against a standard set of 5 H. priori strains obtained from clinical material. Minimal inhibitory concentrations (MICs) were determined by measuring the activity of H. pylori urease after treatment of growing cultures of the bacteria with the antimicrobial agents.
The test compounds were dissolved in DMSO at a concentration of 10^-3 M. A dilution to 10^-4 M in DMSO was also prepared. 10 μl volumes of these solutions were pipetted in the wells of Repli-Dishes (®Sterilin). Wells containing DMSO alone were included as controls in each Repli-Dish. Ampicillin ((+)-6-[(2-amino-2-phenylacetyl)amino]-3,3-dimethyl-7-oxo-4-thia-1-azabicyclo[3.2.0]heptane-2-carboxylic acid trihydrate) and metronidazole (2-methyl-5-nitro-1H-imidazol-1-ethanol) were included as reference compounds in each batch of tests. (These compounds were tested at final concentrations of 10^-5, 10^-6, 10^-7 and 10^-8 M). Test plates were stored at 4° C. until used. The five isolates of H. pylori were maintained by subculture on 10% blood agar every 2 or 3 days. The bacteria were grown at 37° C. under an atmosphere containing 5% oxygen, 10% CO2 and 85% nitrogen. Suspensions of Helicobacter pylori for inoculum were prepared in Brain-heart infusion broth and adjusted to an absorbance of 1.5±0.3 at […].
Freshly prepared 10% blood agar held at 45° C. was added in 1 ml volumes to the wells of the test plates, thus diluting the test compounds to 10^-5 and 10^-6 M. The medium was allowed to cool, then 10 μl volumes of bacterial suspension were pipetted on the agar surface. The plates were incubated for 48 h at 37° C. under the microaerophilic atmosphere described above. […] After the 48 h of incubation, 1 ml volumes of urease broth were gently added to each Repli-Dish well and the plates were incubated at 37° C. for 2 h. 100 μl samples of fluid from each well were then pipetted into the wells of 96-place microdilution plates. A purple colour was interpreted as growth, yellow-orange as no growth of H. pylori. By this means a clear end-point was obtained, from which the inhibitory effects could be determined.
Table 1 summarizes the MIC values determined by the above procedure for a subset of the subject compounds.

SMILES	MIC
CCC(C(=O)c1ccc(Cl)cc1)n1ncn(-c2ccc(N3CCN(c4ccc(O)cc4)CC3)nc2)c1=O (racemic) [compound 25, (±)-2-[1-(4-chlorobenzoyl)propyl]-2,4-dihydro-4-[6-[4-(4-hydroxyphenyl)-1-piperazinyl]-3-pyridinyl]-3H-1,2,4-triazol-3-one]	0.1 µM (≈ 0.0519 µg/mL)
Cc1cn(C(C)C(=O)c2ccc(Cl)cc2)c(=O)n1-c1ccc(N2CCN(c3ccc(O)cc3)CC2)cc1 (centres unmarked) [compound 30, 1-[1-(4-chlorobenzoyl)ethyl]-1,3-dihydro-3-[4-[4-(4-hydroxyphenyl)-1-piperazinyl]phenyl]-4-methyl-2H-imidazol-2-one]	1 µM (≈ 0.517 µg/mL)
Cc1cc(N2CCN(c3ccc(-n4c(C)nn([C@H](C)[C@H](O)c5ccc(Cl)c(Cl)c5)c4=O)cc3)CC2)cc(C)c1O (relative stereo) [compound 10, (±)-(R*,R*)-2-[2-(3,4-dichlorophenyl)-2-hydroxy-1-methylethyl]-2,4-dihydro-4-[4-[4-(4-hydroxy-3,5-dimethylphenyl)-1-piperazinyl]phenyl]-5-methyl-3H-1,2,4-triazol-3-one hemihydrate]	1 µM
Cc1nn(C(C)C(O)c2ccc(Br)cc2)c(=O)n1-c1ccc(N2CCN(c3ccc(O)cc3)CC2)nc1 (centres unmarked) [compound 23, 2-[2-(4-bromophenyl)-2-hydroxy-1-methylethyl]-2,4-dihydro-4-[6-[4-(4-hydroxy-phenyl)-1-piperazinyl]-3-pyridinyl]-5-methyl-3H-1,2,4-triazol-3-one]	1 µM (≈ 0.565 µg/mL)
Cc1ccc(C(O)C(C)n2ncn(-c3ccc(N4CCN(c5ccc(O)cc5)CC4)cc3)c2=O)cc1 (centres unmarked) [compound 33, 2,4-dihydro-2-[2-hydroxy-1-methyl-2-(4-methylphenyl)ethyl]-4-[4-[4-(4-hydroxyphenyl)-1-piperazinyl]phenyl]-3H-1,2,4-triazol-3-one]	1 µM (≈ 0.486 µg/mL)
CCC(C(=O)c1ccc(Cl)cc1)n1ncn(-c2ccc(N3CCC(c4ccc(OC)c(OC)c4)CC3)nc2)c1=O (racemic) [compound 45, (±)-2-[1-(4-chlorobenzoyl)propyl]-4-[6-[4-(3,4-dimethoxyphenyl)-1-piperidinyl]-3-pyridinyl]-2,4-dihydxo-3H-1,2,4-triazol-3-one]	0.01 µM (≈ 0.00562 µg/mL)
CCC(C(=O)c1ccc(Cl)cc1)n1ncn(-c2ccc(N3CCN(c4cccc(O)c4)CC3)nc2)c1=O (racemic) [compound 28, (±)-2-[1-(4-chlorobenzoyl)propyl]-2,4-dihydro-4-[6-[4-(3-hydroxyphenyl)-1-piperazinyl]-3-pyridinyl]-3H-1,2,4-triazol-3-one]	0.01 µM (≈ 0.00519 µg/mL)
CC(C(O)c1ccc(Br)cc1)n1ccn(-c2ccc(N3CCN(c4ccc(O)cc4)CC3)cc2)c1=O (centres unmarked) [compound 9, [A]+[B]-1-[2-(4-bromophenyl)-2-hydroxy-1-methylethyl]-1,3-dihydro-3-[4-[4-(4-hydroxyphenyl)-1-piperazinyl]phenyl]-2H-imidazol-2-one]	1 µM (≈ 0.549 µg/mL)
CC[C@H]([C@H](O)c1ccc(Cl)cc1)n1ncn(-c2ccc(N3CCN(c4ccccc4OC)CC3)nc2)c1=O (relative stereo) [compound 17, (±)-(R*,R*)-2-[1-[(4-chlorophenyl)hydroxymethyl]propyl]-2,4-dihydro-4-[6-[4-(2-methoxyphenyl)-1-piperazinyl]-3-pyridinyl]-3H-1,2,4-triazol-3-one]	0.1 µM (≈ 0.0535 µg/mL)
CCC(C(O)c1ccc(Cl)cc1)n1ncn(-c2ccc(N3CCN(c4ccc(O)cc4)CC3)nc2)c1=O (racemic) [compound 14, (±)-2-[1-[(4-chlorophenyl)hydroxymethyl]propyl]-2,4-dihydro-4-[6-[4-(4-hydroxyphenyl)-1-piperazinyl]-3-pyridinyl]-3H-1,2,4-triazol-3-one]	0.1 µM (≈ 0.0521 µg/mL)
CCC(C(=O)c1ccc(Cl)cc1)n1ncn(-c2ccc(N3CCN(c4ccc(OC)c(OC)c4)CC3)nc2)c1=O (racemic) [compound 48, (±) -2-[1-(4-chlorobenzoyl)propyl]-4-[6-[4-(3,4-dimethoxyphenyl)-1-piperazinyl]-3-pyridinyl]-2,4-dihydro-3H-1,2,4-triazol-3-one dihydrochloride]	≤ 0.001 µM
